Source: patent US11413269B2, “Compositions for improved NRF2 activation and methods of their use” (PATHWAYS BIOSCIENCE, LLC, priority 2015, dated 2022)

Test system: Nrf2
Assay: ARE-driven luciferase promoter/reporter assay in stably transfected cell lines
Type: cell-based, human
Conditions: low concentrations
Experimental: Briefly, the stably transfected cells of types HepG2 (human liver), AREc32 (human breast), MCF7 (human breast), A549 (human lung), 293T (human kidney), and A172 (human brain) were seeded at low density in 24-well plates and incubated at 37° C. with 10% CO2. […] After an additional 18 h of incubation, the cells were lysed in their wells with 100 μl of a lysing buffer that contains 3.5 mM sodium pyrophosphate to stabilize light output by luciferase. A 20 μl aliquot of cell lysate was added to a small test tube, placed in a BD Monolight 3010 luminometer for background luminescence, and then 50 μl of 1 mM luciferin was injected into the tube. Relative Light Units integrated for 10 sec were measured for each sample.

SMILES: O=c1cc(-c2ccc(O)c(O)c2)oc2cc(O)cc(O)c12 [Luteolin, luteolin]
- synergy with combinations of Rosemary extracts and Ginger extracts to activate Nrf2: synergized
